# Assay results as given in ChEMBL document CHEMBL1201862, “PubChem BioAssay data set” (2004).
#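 Following 48 hours of exposure in 96-well plates, responses at five concentrations were used to interpolate endpoints linearly. GI50: concentration for 50% inhibition of growth.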 Calls of active or inactive are those of the source. Rule as the data show it: active = GI50 up to about 1.1 µM and inactive = higher.
# What was measured:
# Experiment in all cases: inhibition of tumour cell growth, NCI panel, 48 h
# NCI-H23 = system: NCI-H23
# UACC-257 = system: UACC-257
# DU-145 = system: DU-145
# U-251 = system: U-251
# M14 = system: M14
# LOX IMVI = system: LOX IMVI
# SR = system: SR
# SNB-75 = system: SNB-75
# SK-OV-3 = system: SK-OV-3
# CCRF-CEM = system: CCRF-CEM
# OVCAR-5 = system: OVCAR-5
# OVCAR-4 = system: OVCAR-4
# K562 = system: K562
# SNB-19 = system: SNB-19
# LXFL 529 = system: LXFL 529
# HOP-92 = system: HOP-92
# IGROV-1 = system: IGROV-1
# SK-MEL-2 = system: SK-MEL-2
# SF-295 = system: SF-295
# RPMI-8226 = system: RPMI-8226
SMILES,GI50 (NCI-H23),GI50 (UACC-257),GI50 (DU-145),GI50 (U-251),GI50 (M14),GI50 (LOX IMVI),GI50 (SR),GI50 (SNB-75),GI50 (SK-OV-3),GI50 (CCRF-CEM),GI50 (OVCAR-5),GI50 (OVCAR-4),GI50 (K562),GI50 (SNB-19),GI50 (LXFL 529),GI50 (HOP-92),GI50 (IGROV-1),GI50 (SK-MEL-2),GI50 (SF-295),GI50 (RPMI-8226)
CC(=O)C1(O)Cc2c(O)c3c(c(O)c2C(OC2CC(N)C(O)C(C)O2)C1)C(=O)c1ccccc1C3=O (configuration not stated),0.0227 µM (active),0.121 µM (active),22.1 nM (active),0.0255 µM (active),0.0452 µM (active),0.01 µM (active),0.0292 µM (active),0.0132 µM (active),0.161 µM (active),0.01 µM (active),0.141 µM (active),0.327 µM (active),0.083 µM (active),0.0373 µM (active),< 0.0219 µM (active),0.187 µM (active),0.0243 µM (active),0.415 µM (active),0.0141 µM (active),–
CC(=O)NC1C(OCc2ccccc2)OC(COC(=O)CCCCCCCCCCNC(=O)CCNc2ccc([N+](=O)[O-])c3[nH]c4ccc(O)cc4c(=O)c23)C(O)C1OC(C)C(=O)N[C@H](C(=O)N[C@H](CCC(=O)O)C(N)=O)C(C)C (some centres not stated),> 100 µM (inactive),> 100 µM (inactive),–,44.4 µM (inactive),48.5 µM (inactive),28.8 µM (inactive),20 µM (inactive),17.1 µM (inactive),84.1 µM (inactive),33 µM (inactive),54.3 µM (inactive),35.4 µM (inactive),76.9 µM (inactive),46.9 µM (inactive),81.8 µM (inactive),28.7 µM (inactive),> 100 µM (inactive),28.8 µM (inactive),> 100 µM (inactive),19.2 µM (inactive)
CC(=O)NNc1nc(C)c(C(=O)NNC(=O)C(=O)Nc2ccc(C)c(C)c2)s1,> 100 µM (inactive),> 100 µM (inactive),–,96.4 µM (inactive),> 100 µM (inactive),16.7 µM (inactive),54.1 µM (inactive),> 100 µM (inactive),> 100 µM (inactive),42.2 µM (inactive),> 100 µM (inactive),72.9 µM (inactive),52.6 µM (inactive),> 100 µM (inactive),58.2 µM (inactive),> 100 µM (inactive),> 100 µM (inactive),> 100 µM (inactive),78.5 µM (inactive),50.9 µM (inactive)
